Values of other authors, collected in patent publication US8466198B2, “Compositions comprising creatine salts and methods of use thereof” (priority 2008, dated 2013).

| Structure (SMILES) | average gain in athletic performance (creatine ingestion, depending on the measured variable) [%] | increase in body mass (first week of loading) | improvement of maximal power/strength (short term supplementation) | improvement of single effort sprint performance (short term supplementation) | improvement of work performed during exercise of maximal effort muscle contractions (short term supplementation) | improvement of work performed during repetitive sprint performance (short term supplementation) |
| --- | --- | --- | --- | --- | --- | --- |
| CN(CC(=O)O)C(=N)N [Creatine] | 10 to 15 | – | – | – | – | – |
| CN(CC(=O)O)C(=N)N.O [creatine monohydrate] | – | 1-2 kilograms | 5-15% | 1-5% | 5-15% | 5-15% |
